Reference: US20050192262A1, “Treatment of tumours” (priority 2001, published 2005)

Assays:
[1] = tested on: DU-145; experiment: Trypan blue exclusion trial, number of viable and dead cells; type: cell-based, human; details: 96 hours; for DU-145 mean % viable / DU-145 mean Dead cells / DU-145 mean Tot. cells / DU-145 mean Viable cells: 100 nM; for DU-145 mean Dead cells / DU-145 mean Tot. cells / DU-145 mean Viable cells: mean (range)
Protocol: (§1) Human prostatic cancer cell lines, PC-3 and DU-145, were used. Frozen cell lines were established in culture. DU-145, which was received as a tumour piece, was first disintegrated in a sterile Petri dish, using a pair of scissors. The disintegrated tumour was transferred to a […] cell-culture flask containing medium. For medium, Ham's F 10 was used for PC-3 and RPMI 1640 for DU-145.
(§2) FBS 10%, 0.2% NaHCO3 (7.5%), 2 mM L-glutamine (200 mM) and 0.005 mg/ml gentamycin (5 mg/ml) were added to culturing media for both cell lines.
(§3) Cells were grown in […] cell culture flasks until nearly confluent and culture medium was changed twice weekly. A solution of 17α-AED, 17-β-AED as well as a mixture of both in equal parts of DMSO and ethanol diluted in culture medium, not allowing the concentration of DMSO in culture-flasks to exceed 0.15%, was added respectively.
(§4) The concentration of AED in each culture flask was 100 nM. Controls were exposed to the same concentration of DMSO and ethanol in culture medium.
(§5) Exposure was maintained for 96 hours and cells in culture flasks were then treated with 5 ml of trypsin (0.25%) for PC-3 and trypsin and 3 ml of Versene (0.2 mM) for DU-145. Cells were then mechanically loosened, using a glass spatula. 100 μL aliquots were removed for Trypan blue exclusion trial. 200 μL aliquots were removed for cytospin preparations. The remaining 700 μL samples were then centrifuged for 5 minutes at 510×g at 4° C. Supernatant was removed and cells were resuspended in medium in 1 ml of insect cell lysis buffer (Pharmingen # 21425A) and incubated for 30 minutes on ice. The cell lysates were then stored at −70° C. until analysis.
(§6) Trypan Blue Exclusion Trial 100 μL aliquots of the initial cell suspension in PBS were used to determine the viability of cells collected by means of the trypan blue exclusion assay. 10 μL of the cell suspensions were mixed with 10 μL trypan blue solution (Sigma Chemical Co. # T8154) and left to sit for 3 minutes. The numbers of viable and dead cells were counted in a hemocytometer.

[2] = tested on: PC-3; experiment: as above; type: cell-based, human; details: 96 hours; for PC-3 mean % viable / PC-3 mean Dead cells / PC-3 mean Tot. cells / PC-3 mean Viable cells: 100 nM; for PC-3 mean Dead cells / PC-3 mean Tot. cells / PC-3 mean Viable cells: mean (range); for increase in total number of cells compared to controls / proportion of viable cells: PC-3, 100 nM
Protocol: as §1, §2, §3, §4, §5, §6

[3] = tested on: DU-145; experiment: Caspase apoptosis assay (Ac-DEVD-AMC fluorescence); type: cell-based, human; details: 96 hours; for Mean fluorescence DU-145 samples/100 cells n = 3 / Mean fluorescence DU-145 samples n = 3: 100 nM, mean (range); for Mean fluorescence DU-145 samples/100 cells n = 3: corrected for cell number
Protocol: as §5
Aliquots of a 100 μL of cell lysate were removed for the caspase assay. Each portion was mixed with 1 ml protease assay buffer and Ac-DEVD-AMC substrate (Pharmingen # 66081U) with a final concentration of 20 μM. Solutions were incubated for 60 minutes at 37° C.
To determine background fluorescence a control was prepared, containing no cell lysate but the same amounts of protease assay buffer, lysis buffer and Ac-DEVD-AMC substrate.
Fluorescence was measured using a spectrofluorometer (RF 540, Shimadzu Data Recorder DR3, Instrument AB, Lambda) at 415-450 nm with an excitation wavelength of 380 nm.

[4] = tested on: β-catenin; experiment: Western blotting of Dunning AT-1 rat prostate tumours; type: in vivo; details: for β-catenin expression, optical density: Animals I, controls set to 100, mean (range), α-AED 10 mg 96 hours, β-AED 80 mg 456 hours, α+β sequential; for expression of β-catenin: Animals II, exposure 80 hours in all arms
Protocol: (§7) The animal experiment described above was repeated.
(§8) Thawed rat tumours from both experiments above were homogenized in ice cold lysis-buffer. (160 mM NaCl, 10 mM HEPES, 2 mM CaCl2, 5% SDS, 0.5% Triton X-100, 100 μg/ml phenyl-metylsulfonyl fluoride, 1 μg/ml leupeptin and 2 μg/ml aprotinin), placed on ice for 15 minutes and following clarification centrifuged for 10 minutes at 13,000 g. Protein content of homogenates were determined by Lowry assay.
(§9) Protein in lysates (90 μg) were separated by electrophoresis using 8% SDS-PAGE and separated proteins were transferred onto a nitrocellulose membrane (Amersham) in trans-blot electrophoretic transfer cell (Bio-Rad Laboratories).
(§10) After washing in TTBS the blots were reincubated with horseradish peroxidase conjugated secondary antibody (anti-goat antibodies 2020, Santa Cruz) diluted 1:4000 in TTBS containing 3% (w/v) non-fat, dried milk for one hour. Blots were developed using an enhanced chemiluminescence system (ECL, Amersham) and exposed to Hyperfilm ECL (Amersham). Optical density was measured densitometrically.
(§11) The blots were striped and rehybridized with antibodies against β-catenin (C-18, sc. 1496) and COX-2 (C-20, sc 1745) antibodies.
(§12) In the second animal experiment tumours were investigated for expression of β-catenin, COX-2 and cyclin D1 (A-12, sc. 8396).

[5] = tested on: COX-2; details: Animals I; controls set to 100; mean (range); α-AED 10 mg 96 hours, β-AED 80 mg 456 hours, α+β sequential
Protocol: as §7, §8, §9, §10, §11, §12

[6] = tested on: cyclin D1; experiment: Western blotting of Dunning AT-1 rat prostate tumours; type: in vivo; details: Animals II; exposure 80 hours in all arms
Protocol: as §7
(§13) Group 1 received a single dose of 10 mg 17α-AED sc. near tumour.
(§14) Group 2 received a single dose of 80 mg 17β-AED in the same way.
(§15) Group 3 received a single dose of 25 mg 17α OH-pregnenolone in the same way.
(§16) Group 4 received a single dose of 7.5 mg 5-androstene-3β,7β,17α-triol.
Protein content of homogenates were determined by Lowry assay.

[7] = tested on: Dunning R 3327, AT-1, rat prostatic tumour; experiment: Tumour growth after s.c. injection near tumour; type: in vivo; details: for tumour volumes: Animals II, single s.c. injection in the proximity of the tumour
Protocol: as §7, §13, §14, §15, §16
A fifth group served as tumour bearing controls.

[8] = tested on: Dunning AT-1 rat prostatic tumour; details: sections of treated rat prostatic tumour
From the text: Tumours were investigated for Increased apoptosis with the Apop-Tag In situ apoptosis detection kit (Oncor, Gaithersburg, Md.).

[9] = tested on: 3T3-L1 fibroblasts; details: 200 nM
Protocol: 3T3L1 fibroblasts from ATCC (embryonic muscle cell-line) batch F-12732 (batch-date 930301) were grown in 500 ml of DMEM, 50 ml of fetal bovine serum (FBS) and 11 ml of PEST. Medium was changed every second day. Cells were passaged when they were 80% confluent.
For differentiating purpose fibroblasts were Incubated in DMEM+10% FCS+5 kg/ml of insulin. 0.1 mM of IBMX and 0.25 μM of dexametason was added. After 2 days cells were transferred to DMEM+10% FCS+5 μg/ml Insulin. Medium was then changed every second day and consisted of DMEM+10% FCS. […] This served as positive control for differentiation.
Fibroblasts were also incubated with the same solutions except that IBMX and dexamethasone were exchanged with solutions of 17α-AED in ethanol and water, making the concentration of 17α-AED 100 or 200 nM in the cultures. Cultures were kept in incubator until confluent.

[10] = tested on: Dunning AT-1 rat prostate cancer
[11] = tested on: Dunning AT-1, rat prostatic tumour; experiment: Tumour morphology; details: Animals I
Protocol: Group 4 served as untreated, tumour-bearing controls. In all treatments equal amounts of PEG 400 (Sigma Chemicals) and ethanol, 0.5 ml was used as vehicle and injected s.c. adjacent to the tumour site.
In group 2 the experiment was terminated after 96 hours and for the remaining groups after 19 days through asphyxiation of rats with carbon dioxide.

Row | SMILES | DU-145 mean % viable [1] | DU-145 mean Dead cells [1] | DU-145 mean Tot. cells [1] | DU-145 mean Viable cells [1] | PC-3 mean % viable [2] | PC-3 mean Dead cells [2] | PC-3 mean Tot. cells [2] | PC-3 mean Viable cells [2] | increase in total number of cells compared to controls [2] | proportion of viable cells [2] | Mean fluorescence DU-145 samples/100 cells n = 3 [3] | Mean fluorescence DU-145 samples n = 3 [3] | β-catenin expression, optical density [4] | expression of β-catenin [4] | COX-2 expression, optical density [5] | expression of cyclin D1 [6] | tumour volumes [7] | also measured
1 | C[C@]12CC[C@H]3[C@@H](CC=C4C[C@@H](O)CC[C@@]43C)[C@@H]1CC[C@H]2O [Compound 17α-AED, androstene-3β,17α-diol] | 78.1% | 29(21-37) | 131(122-148) | 102(95-111) | 71.6% | 23(16-32) | 81(64-98) | 58(49-77) | 59% | small decrease in proportion of viable cells | 14.2((10.9-20.3) | 18.4(13.2-25.2) | 20(15-30) | marked decrease | 219(192-234) | marked decrease | ~150% | total number of cells ([1]; DU-145, 100 nM): significant decrease in total number of cells; caspase-3 or caspase-7 fluorescence compared to 17β-AED or controls ([3]; DU-145, 100 nM): significant decline; programmed cell death compared to control (TUNEL) [8]: no sign of increased programmed cell death; cell proliferation [9]: marked inhibition of cell proliferation; mean S-phase ([10]; treated Dunning AT-1 samples, untreated 25.5%): 45.3%; Proportion of cells in G1 ([10]; treated tumours, control tumours 59%): 35%; tumour appearance (morphology) [11]: devitalized tumour tissue in circumscribed areas
2 | C[C@]12CC[C@H]3[C@@H](CC=C4C[C@@H](O)CC[C@@]43C)[C@@H]1CC[C@@H]2O [Compound 17β-AED, reference compound] | 72.1% | 35(31-42) | 125(109-149) | 90(78-107) | 73.7% | 17(16-18) | 66(63-71) | 49(46-53) | 29% | small decrease in proportion of viable cells | 35.1(25.6-50.3) | 42.9(32.0-58.8) | 14(10-22) | did not reduce | 135(133-137) | did not reduce | ~200% | antitumoural effect / tumour growth ([7]; original experiment (Animals I)): growth-stimulatory effect
